# Experimental data as given in patent US20180071188A1, “COMPOSITION FOR THE PERMANENT DEFORMATION OF HAIR HAVING REDUCED ODOUR” (The Procter & Gamble Company, priority 2016, published 2018).
# Legend:
# [1] = distribution coefficient log P (octanol/water); format: physicochemical; details: raw material of malodor suppressant system
# From the text: In the fields of organic and medicinal chemistry, a distribution (P) coefficient is the ratio of concentrations of a compound in the two phases of a mixture of two immiscible solvents at equilibrium. […] One of the solvents chosen is water while the second is octanol. […] The partition coefficient is the ratio of concentrations of un-ionized compound between the two solutions. The logarithm of the ratio of the concentrations of the un-ionized solute in the solvents is called log P:
# The log P (octanol/water) is referred hereinafter as “log P”, unless otherwise specified.
# [2] = density of malodor suppressant; format: physicochemical; details: 23° C., 1.013 bar
# Experimental: All densities relate to a temperature of 23° C. and a pressure of 1.013 bar. Density measurements are typically performed via determining the weight and the volume of the compound to be measured, or according to any other processes known to the skilled person.
# [3] = Test Procedure 2: panel test rating thiol malodor of permanent shaping premix mixed with malodor suppressant system; details: scale 0 to 5 (0=no thiol smell, 5=harsh thiol smell); 5 panelists; premix + 0.7 wt.-% suppressant system; same rating immediately and 25 min after mixing
# Experimental: A […] performed with 5 panelists with trained expertise in the classification of thiol malodour. The panelists received a mixture of the permanent shaping premix and 0.7 wt.-% of one malodor suppressant system, as described above (stirred by a single operator for all tests). Immediately and 25 min after mixing, the panelists were asked to rate the thiol malodor according to a scale of 0 to 5 (0=no thiol smell, 5=harsh thiol smell), the mixture being passed from panelist to panelist with an additional stirring for each of the panelists. The same odor rating is obtained immediately after mixing and 25 min after mixing.
molecule,measurement,setting,value
"CCCCCCCCCCCCCC(=O)OC(C)C [S1, isopropylmyristate]",logP,[1]; octanol/water,7.41
same,density,[2],0.864 g/mL
same,Odor (thiol malodor rating),[3],3
"O=C1CCCCCCCCC/C=C/CCCO1 [S2, Habanolide]",log P (octanol/water),[1],4.77
same,density,[2],0.901 g/mL
same,Odor (thiol malodor rating),[3],4
"CC1COCc2cc3c(cc21)C(C)(C)C(C)C3(C)C (centres unmarked) [S3, Galaxolide]",logP,[1],5.93
same,density,[2],0.946 g/mL
same,Odor (thiol malodor rating),[3],1-2
"CC1COC(C)(c2ccc3c(c2)C(C)(C)CCC3(C)C)O1 (centres unmarked) [S5, Okoumal]",log P (octanol/water),[1],5.79
same,density,[2],0.971 g/mL
same,Odor (thiol malodor rating),[3],3
"O=C(OCc1ccccc1)c1ccccc1 [S6, Benzyl benzoate]",density,[2],1.129 g/mL
same,Odor (thiol malodor rating),[3],3
Operanide [S4],log P (octanol/water),[1],4.90
same,density,[2],1.01 g/mL
same,Odor (thiol malodor rating),[3],2
